Experimental data from PubChem BioAssay (NCI).
“And” between values parts separate entries of the source, which are not always exact repeats. Identical values can stand only once.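 Dose response: 5 concentrations. Exposure: 48 h. Format: 96-well plates. Endpoint: linear interpolation; highest concentration if not reached. GI50: concentration for 50% inhibition of growth. TGI: concentration producing complete growth inhibition.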

Tests used:
Experiment in all cases: NCI-60 cell line screen, 48 h
[1] = system: CCRF-CEM leukemia
[2] = system: SK-MEL-5 melanoma
[3] = system: 786-0 renal
[4] = system: SF-268 CNS
[5] = system: EKVX NSCLC
[6] = system: KM12 colon
[7] = system: MDA-N
[8] = system: A549 NSCLC
[9] = system: ACHN renal
[10] = system: MALME-3M melanoma
[11] = system: SF-539 CNS
[12] = system: NCI-H522 lung

| SMILES | TGI [1] [µM] | TGI [2] | TGI [3] | TGI [4] | TGI [5] | TGI [6] | TGI [7] [µM] | TGI [8] [µM] | TGI [9] [µM] | TGI [10] | TGI [11] [µM] | TGI [12] [µM] | GI50 [5] [nM] | GI50 [8] [nM] |
| --- | --- | --- | --- | --- | --- | --- | --- | --- | --- | --- | --- | --- | --- | --- |
| C/C(=N\Nc1nc2ccccc2o1)c1cc2ccccc2cn1 | > 38.5 | 22.5 µM | 6.61 µM | 2.82 µM | 1.25 µM | 7.85 µM | 35.3 | 9.46 | 2.55 | 5.51 µM |  |  |  |  |
| CNC(=O)OCC1=C(COC(=O)NC)C(C)N(c2ccccc2)C1 (centres undefined) | > 100 | 41.6 µM | > 100 µM | > 100 µM | > 100 µM | > 100 µM | > 100 | > 100 | > 100 | 97.4 µM | 67.3 |  |  |  |
| CC1=CC(=O)/C(=C/N2C(=O)CNC2=S)C(=O)O1 |  | > 100 µM | > 100 µM |  | > 100 µM | > 100 µM | > 100 | > 100 | > 100 |  | > 100 |  |  |  |
| Cc1ccc(N2C3=C(CC4=C2CC(C)(C)CC4=O)C(=O)CC(C)(C)C3)cc1 | > 100 | > 100 µM | > 100 µM | > 100 µM | > 100 µM | > 100 µM | > 100 | > 100 | > 100 | > 100 µM | > 100 |  |  |  |
| COc1ccc2c(c1)C=C(C(C)(C)C)NS2(=O)=O | > 100 | > 100 µM | > 100 µM | > 100 µM | > 100 µM | > 100 µM |  | > 100 | > 100 | > 100 µM | > 100 | > 100 |  |  |
| CCOC(OCC)[C@H](N)[C@@H](O)[C@@H](O)[C@H]1COC(C)(C)O1 | > 100 | > 100 µM | > 100 µM | > 100 µM | > 100 µM | > 100 µM | > 100 | > 100 | > 100 | > 100 µM |  |  |  |  |
| ClCCc1ccccc1CC1=NCCc2ccccc21 | > 100 | 47.9 µM | > 100 µM | > 100 µM | > 100 µM | > 100 µM |  | > 100 | > 100 |  | > 100 | 44 |  |  |
| COc1ccc(NS(=O)(=O)c2ccc(N=C3C=C(Nc4ccc(S(=O)(=O)Nc5ccc(OC)nn5)cc4)C(=O)c4ccccc43)cc2)nn1 | > 100 | 35 µM | 31.7 µM | 52.9 µM | 63.1 µM | 30.5 µM |  | 32.2 | 37.8 | 33.1 µM | 31.6 | 31.8 |  |  |
| CSS(C)(=O)=O | > 100 | > 100 µM | > 100 µM | 96.9 µM | 66.2 µM | 87.1 µM |  | > 100 | 56.9 | 48.4 µM | 37 | 37.1 |  |  |
| O=C(Nc1nccs1)NS(=O)(=O)n1cnc2ccccc21 | > 100 | > 100 µM | > 100 µM | > 100 µM | > 100 µM | > 100 µM |  | > 100 | > 100 | > 100 µM | > 100 | > 100 |  |  |
| O=C(N[C@@H](Cc1ccccc1)B(O)O)[C@H](Cc1cccc2ccccc12)NC(=O)N1CCOCC1 | 0.0022 | 0.00392 µM and 0.014 µM | 0.271 µM and 0.12 µM | 0.00654 µM and 0.058 µM | 0.923 µM and 3.66 µM | 0.0041 µM and 0.0149 µM |  | 0.47 | 24.6 | 0.0103 µM and 0.0226 µM | 0.000769 |  | 129 | 12.3 |
| C(#C[C@@]12CCC[C@@H]1N(Cc1ccccc1)CO2)c1ccc2c(c1)OCO2 | > 100 |  | > 100 µM | > 100 µM | > 100 µM | > 100 µM | > 100 | > 100 | > 100 | > 100 µM | > 100 |  |  |  |
| CC(C)C[C@H](NC(=O)CCc1cccc2ccccc12)B(O)O | […] | 1.85 µM | 28.3 µM | 10.1 µM | 64.2 µM | 5.4 µM |  | 49.7 | > 100 | 5.23 µM | 1.21 | 4.95 |  |  |
| CC(C)C1=CC23CCC4C(C)(C(=O)O)CCCC4(C)C2CC1C1C(=O)N(c2cccc(N4C(=O)C5C6CC7C8(C)CCCC(C)(C(=O)O)C8CCC7(C=C6C(C)C)C5C4=O)c2)C(=O)C13 (centres undefined) | 26.2 | 28.6 µM | > 100 µM | 27.8 µM | 24.4 µM | 9.7 µM |  | > 100 | 26.1 | 32.9 µM | 57.7 | 29.7 |  |  |
| CCCCC(N)CSSCC(N)CCCC (centres undefined) | 64.2 | 55.7 µM | 32.8 µM | 61.5 µM | 61.8 µM | > 100 µM |  | > 100 | > 100 | 32.6 µM | 47.8 | 29.7 |  |  |
| COc1ccc2c(c1)OC1c3ccccc3OCC21 (centres undefined) | > 100 | > 100 µM | > 100 µM | > 100 µM | > 100 µM | > 100 µM | > 100 |  | > 100 |  | > 100 |  |  |  |
| CCOC1=NC(C(F)(F)F)(C(F)(F)F)N=C(N2CCCCC2)O1 | > 100 | > 100 µM | > 100 µM | > 100 µM | > 100 µM | > 100 µM |  | > 100 | > 100 | > 100 µM | > 100 | > 100 |  |  |
